Measurements reported in patent publication US12018058B2, “Compositions and methods for diagnosing and/or treating kidney injury” (Boston Medical Center Corporation, priority 2018, dated 2024).

What was measured:
[1] = test system: mice subjected to bilateral renal pedicle clamping; experiment: Ischemic AKI by bilateral renal pedicle clamping (BUN, creatinine, survival); assay type: in vivo, C57BL/6J mice; conditions: 28 min bilateral pedicle clamping
Source text: All animals were maintained under the guidance and policies of the Boston University Animal Core facility using National Institutes of Health (NIH) and Institutional Animal Care and Use Committee guidelines. Male and female C57BL/6J mice were purchased from Jackson Laboratory (Bar Harbor, ME), and they were housed and bred at the Boston University Animal Core facility under license number AN-15024. […] Animas were handled in a manner consistent with the NIH guide for their care and use under Institutional Animal Care and Use Committee approval.
Mice were subjected to bilateral renal pedicle clamping after being anesthetized with 2,2,2-tribromoethanol. […] 13,28,29 Slight variation in the clamp time was required to achieve similar degrees of renal dysfunction in the relatively large number of animals studied. The clamp was then removed, and reperfusion was confirmed by visual inspection of the kidneys. Sham ischemia was performed by encircling each renal pedicle with a nonocclusive ligature.
For in vitro testing in primary human PTECs, peptides ([…]) were tested that replicate the Bax domain responsible for binding NPM,34 or two peptides designed to interfere with NPM function were compared with a random nonspecific sequence of the same length (control). Peptides intended to interfere with NPM function overlap key phosphorylation sites located at the NPM amino terminus (peptide 2) or carboxy terminus (peptide 3) detected by mass spectrometry. To improve cell uptake, all peptides contained a cell-penetrating sequence13. For in vivo experiments, a renal-targeting sequence (NLS) was added to enhance renal peptide uptake.35 Peptides were commercially synthesized (Biomatik, Wilmington, DE) J Am Soc Nephrol 30: ccc-ccc, 2018 Nucleophosmin in AKI 3www.jasn.org BASIC RESEARCHas follows: NPM-Bax blocking peptide: Ac-KKKRKV-(bA)-[…]-COOH (SEQ ID NO: 8); peptide 2: AC-PKKKRKV-(bA)-[…]-COOH (SEQ ID NO: 9); and peptide 3: AC-PKKKRKV-(bA)-ESFKK-QEKTPKTPKGPSSVED-IKAK-COOH (SEQ ID NO: 10). […] A total of 42 control and 56 experimental animals were studied.
(§1) Transient exposure to metabolic inhibitors replicates ischemia in vivo by activating Bax and causing cell death.13,29,36-38 Cell viability was assayed using a modified colorimetric technique (MTTassay).37 The number of surviving cells is expressed as a percentage of viable control cells detected at baseline. Serum BUN and creatinine levels were measured in tail vein blood samples for 7 days after ischemia using QuantiChrom BUN or creatinine assay kits (BioAssay Systems, Hayward, CA) according to the manufacturer's instructions.

[2] = test system: PTEC; experiment: Toxicity of pharmacologic agents in PTEC; assay type: cell-based; conditions: exposure to the IC50 dose for 48-72 hr; data not shown
Source text: The inventors have also tested pharmacologic agents that disrupt NPM-Bax at specific steps in the cell death pathway (outlined in FIG. 11). These agents include geronylgeronylacetone (GGA), a potent Hsp70 inducer86, avrainvillamide, and NSC34888437. […] The inventors recently reported that GGA induces Hsp70 in murine PTEC and in the intact murine kidney. Hsp70 markedly reduces NPM-Bax complex formation during ischemic stress by 2 distinct mechanisms: a nucleolar-restricted Hsp70 mutant limits NPM translocation into the cytosol, whereas a cytosol restricted Hsp70 mutant sequesters […].

[3] = test system: primary human PTECs; assay type: cell-based; conditions: PTECs, ATP depletion; versus control peptide
Protocol: Exposure to metabolic inhibitors is an established model of ischemic stress that reduces ATP content to, 10% of baseline values until recovery is initiated.24,26 To achieve ATP depletion, cells were washed three times in glucose-free DMEM (Invitrogen, Carlsbad, CA) followed by incubation in glucose-free DMEM containing sodium cyanide (5 mM) and 2-deoxy-glucose (5 mM) for the indicated times.26
Recovery was initiated by replacing the stress medium described above with complete primary cell culture medium containing glucose and substrates that support the rapid restoration of cell ATP.27
For in vitro testing in primary human PTECs, peptides ([…]) were tested that replicate the Bax domain responsible for binding NPM,34 or two peptides designed to interfere with NPM function were compared with a random nonspecific sequence of the same length (control). Peptides intended to interfere with NPM function overlap key phosphorylation sites located at the NPM amino terminus (peptide 2) or carboxy terminus (peptide 3) detected by mass spectrometry. To improve cell uptake, all peptides contained a cell-penetrating sequence13. For in vivo experiments, a renal-targeting sequence (NLS) was added to enhance renal peptide uptake.35 Peptides were commercially synthesized (Biomatik, Wilmington, DE) J Am Soc Nephrol 30: ccc-ccc, 2018 Nucleophosmin in AKI 3www.jasn.org BASIC RESEARCHas follows: NPM-Bax blocking peptide: Ac-KKKRKV-(bA)-[…]-COOH (SEQ ID NO: 8); peptide 2: AC-PKKKRKV-(bA)-[…]-COOH (SEQ ID NO: 9); and peptide 3: AC-PKKKRKV-(bA)-ESFKK-QEKTPKTPKGPSSVED-IKAK-COOH (SEQ ID NO: 10). A single dose ([…] of the NPM-Bax blocking or control peptide) was administered by tail vein injection immediately after release of the pedicle clamps(0 timepoint) […] in each experimental group. A total of 42 control and 56 experimental animals were studied.
as §1

Compound | Animal survival [1] | Mean peak BUN [1] [m/dl] | PTEC morphology and toxicity [2] | Cell survival after ischemic stress [3]
CC(=O)CC/C=C(\C)CC/C=C(\C)CC/C=C(\C)CCC=C(C)C [GGA, geronylgeronylacetone, reference compound] | all survived | 100 | does not alter PTEC morphology or cause significant toxicity | 
O=C(C[n+]1cccc2cc(Cl)ccc21)c1cccc([N+](=O)[O-])c1.[Br-] [NSC34888437] |  |  | does not alter PTEC morphology or cause significant toxicity | 
CC1(C)C=Cc2c(ccc3c2[N+]([O-])=C2C3=C[C@@]34NC(=O)[C@]5(CCCN5C3=O)C[C@H]4C2(C)C)O1 [avrainvillamide] |  |  | does not alter PTEC morphology or cause significant toxicity | 
AC-PKKKRKV-(bA)-ESFKK-QEKTPKTPKGPSSVED-IKAK-COOH (PKKKRKVAESFKKQEKTPKTPKGPSSVEDIKAK; N-acetyl, NLS PKKKRKV-betaAla N-terminal; MOD_RES (8)..(8) Beta-alanine) [peptide #3] |  |  |  | significantly improve cell survival
AC-PKKKRKV-(bA)-TLKMSVQPTVSLGGFEITPPVVLRLK-COOH (PKKKRKVATLKMSVQPTVSLGGFEITPPVVLRLK; N-acetyl, NLS PKKKRKV, beta-alanine linker; MOD_RES (8)..(8) Beta-alanine) [peptide #2] |  |  |  | significantly improve cell survival
